Consider 3 compounds from patent US20230265151A1, “GIP/GLP1 CO-AGONIST COMPOUNDS” (priority 2020, published 2023).

Like-named read-outs stand apart in the source and are kept apart here.

Test [1] has as its target hGLP-1R (Homo sapiens, UniProt P43220). Nature of the test: Functional cAMP formation (HTRF) in HEK-293 clonal cells expressing hGLP-1R, 0.1% bovine casein, without or with 1.0% human serum albumin. In kind it is cell-based. The following applies: for Emax: HEK293, cAMP, percent of maximal response to GLP-1(7-36)NH2, read-out: hGLP-1R Emax, % ± SEM; for EC50: read-out: hGLP-1R EC50, nM (SEM, n). Set-up: expressed in transfected cells. Put shortly: (§1)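 Cells were stimulated with peptide for 30 min at 37° C, then lysed in buffer carrying cAMP-d2 and anti-cAMP Eu3+-cryptate for a competitive HTRF read after at least 60 min at room temperature. The 665/620 nm ratio was converted to nM cAMP against a standard curve.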
On the technique in general: Changes in cAMP serve as a functional read-out for many G protein-coupled receptors.

Test [2] has as its target T1, human GLP-1 receptor (hGLP-1R) (Homo sapiens, UniProt P43220).
T1 construct: expressed in transfected cells; crude membranes
Put plainly: [125I]-GLP-1 binding, SPA with membranes of HEK293 cells expressing hGLP-1R. The following applies: human GLP-1R; geometric mean (SEM, n); read-out: Binding Affinity Ki, nM (SEM, n) hGLP-1R.

The target of test [3] is T2, hGIPR (Homo sapiens, UniProt P48546).
T2 construct: expressed in transfected cells
T2 sequence (P48546 22-466): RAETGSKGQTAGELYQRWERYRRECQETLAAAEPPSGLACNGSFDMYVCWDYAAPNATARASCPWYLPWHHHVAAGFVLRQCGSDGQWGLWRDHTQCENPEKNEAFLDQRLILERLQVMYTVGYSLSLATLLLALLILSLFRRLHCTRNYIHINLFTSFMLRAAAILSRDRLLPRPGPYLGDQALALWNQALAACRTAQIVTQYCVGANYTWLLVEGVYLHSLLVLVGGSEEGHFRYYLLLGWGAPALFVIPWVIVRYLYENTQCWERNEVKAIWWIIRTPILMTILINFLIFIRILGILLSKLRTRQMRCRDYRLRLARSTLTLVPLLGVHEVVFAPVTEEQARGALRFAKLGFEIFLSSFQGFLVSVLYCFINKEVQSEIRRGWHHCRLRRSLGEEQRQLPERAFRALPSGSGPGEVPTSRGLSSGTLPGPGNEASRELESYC
Nature of the test: Functional cAMP formation (HTRF) in HEK-293 clonal cells expressing hGIPR, 0.1% bovine casein, without or with 1.0% human serum albumin. In kind it is cell-based. The following applies: 37° C.; for Emax: percent of maximal response to GIP(1-42)NH2, read-out: hGIPR Emax, % ± SEM; for EC50: cAMP, read-out: hGIPR EC50, nM (SEM, n). Put shortly: as §1

Test [4] concerns the target T3, human GIP receptor (hGIPR) (Homo sapiens, UniProt P48546).
T3 construct: expressed in transfected cells; crude membranes
T3 sequence (P48546 22-466): T2 sequence (P48546 22-466)
Nature of the test: [125I]-GIP binding, SPA with membranes of CHO cells expressing hGIPR. The following applies: human GIPR; geometric mean (SEM, n); read-out: Binding Affinity Ki, nM (SEM, n) hGIPR.

For test [5], the target named is T4, hGCGR (Homo sapiens, UniProt P47871).
T4 construct: expressed in transfected cells
Put plainly: Functional cAMP formation (HTRF) in HEK-293 clonal cells expressing hGCGR, 0.1% bovine casein, without or with 1.0% human serum albumin. Format: cell-based. Conditions: read-out: hGCGR EC50, nM (SEM, n). Put shortly: as §1

[6] abbreviates: 37° C., 0.1% bovine casein, arithmetic mean.
Setting [7] is: cAMP, 37° C., 0.1% bovine casein (no human serum albumin), geometric mean.
Where [8] appears, read: cAMP, 37° C., 0.1% bovine casein and 1.0% human serum albumin, geometric mean (SEM, n).
[9] abbreviates: HEK293, cAMP, 0.1% bovine casein and 1.0% human serum albumin.
The mark [10] stands for this setting: 0.1% bovine casein (no human serum albumin), geometric mean.
Where [11] appears, read: 0.1% bovine casein and 1.0% human serum albumin, 37° C., geometric mean.
[12] abbreviates: cAMP, incubated at 37° C., 0.1% bovine casein (no human serum albumin), geometric mean.

T4 sequence (P47871 26-477): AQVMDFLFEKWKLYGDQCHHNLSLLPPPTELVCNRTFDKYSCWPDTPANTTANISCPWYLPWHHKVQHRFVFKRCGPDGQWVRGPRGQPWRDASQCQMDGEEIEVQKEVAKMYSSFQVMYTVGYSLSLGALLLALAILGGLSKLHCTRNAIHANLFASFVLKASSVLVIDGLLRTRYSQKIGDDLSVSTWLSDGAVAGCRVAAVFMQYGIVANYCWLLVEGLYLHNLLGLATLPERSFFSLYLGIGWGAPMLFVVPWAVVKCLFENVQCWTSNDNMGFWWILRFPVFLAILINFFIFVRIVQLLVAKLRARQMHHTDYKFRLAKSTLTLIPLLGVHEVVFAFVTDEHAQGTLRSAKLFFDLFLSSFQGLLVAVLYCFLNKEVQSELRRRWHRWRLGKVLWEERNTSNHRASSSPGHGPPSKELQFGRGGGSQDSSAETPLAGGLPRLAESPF
T1 sequence (P43220 24-463): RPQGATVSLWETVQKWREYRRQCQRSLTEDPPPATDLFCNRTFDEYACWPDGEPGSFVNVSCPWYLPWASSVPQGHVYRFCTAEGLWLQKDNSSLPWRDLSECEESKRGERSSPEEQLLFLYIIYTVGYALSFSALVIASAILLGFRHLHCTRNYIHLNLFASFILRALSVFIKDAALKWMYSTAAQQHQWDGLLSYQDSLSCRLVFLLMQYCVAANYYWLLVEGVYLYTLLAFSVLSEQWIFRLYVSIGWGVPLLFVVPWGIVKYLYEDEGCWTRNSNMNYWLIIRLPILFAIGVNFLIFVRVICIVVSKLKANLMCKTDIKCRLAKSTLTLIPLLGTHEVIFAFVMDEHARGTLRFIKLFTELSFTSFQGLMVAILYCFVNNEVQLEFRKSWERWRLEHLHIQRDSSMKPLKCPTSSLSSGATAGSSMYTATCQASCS
Chain of hGLP-1R (P43220 24-463): as above

A word on the Emax: it is the maximal effect, on the per cent scale that the assay sets. For orientation: EC50 means the concentration needed to bring the measured effect to its halfway point. Usually Ki stands for the equilibrium dissociation constant of an inhibitor or competing ligand from its target. As for `CC[C@H](C)[C@H](NC(=O)[C@H](CC(C)C)NC(=O)[C@](C)(Cc1ccc(O)cc1)NC(=O)[C@H](CCCCNC(=O)COCCOCCNC(=O)COCCOCCNC(=O)CC[C@H](NC(=O)CC[C@H](NC(=O)CCCCCCCCCCCCC(=O)O)C(=O)O)C(=O)O)NC(=O)[C@@H](NC(=O)[C@H](Cc1ccccc1)NC(=O)[C@H](CCCN)NC(=O)C(C)(C)NC(=O)[C@H](CCC(N)=O)NC(=O)[C@H](C)NC(=O)[C@H](CCC(N)=O)NC(=O)[C@H](CCCN)NC(=O)[C@H](CC(=O)O)NC(=O)[C@H](CC(C)C)NC(=O)[C@](C)(CC(C)C)NC(=O)[C@@H](NC(=O)C(C)(C)NC(=O)[C@H](Cc1ccncc1)NC(=O)[C@H](CC(=O)O)NC(=O)[C@H](CO)NC(=O)[C@@H](NC(=O)[C@](C)(Cc1ccccc1F)NC(=O)[C@@H](NC(=O)CNC(=O)[C@H](CCC(=O)O)NC(=O)C(C)(C)NC(=O)[C@@H](N)Cc1ccc(O)cc1)[C@@H](C)O)[C@@H](C)O)[C@@H](C)CC)[C@@H](C)CC)C(=O)N[C@@H](CCCCNC(=O)COCCOCCNC(=O)COCCOCCNC(=O)CC[C@H](NC(=O)CC[C@H](NC(=O)CCCCCCCCCCCCC(=O)O)C(=O)O)C(=O)O)C(=O)NCC(=O)NCC(=O)N1CCC[C@H]1C(=O)N[C@@H](CO)C(=O)N[C@@H](CO)C(=O)NCC(=O)N[C@@H](C)C(=O)N1CCC[C@H]1C(=O)N1CCC[C@H]1C(=O)N1CCC[C@H]1C(=O)N[C@@H](CO)C(N)=O` [Example 474], the Emax in test [1] (setting [6]) was determined as 113%; in test [3] (setting [9]), 85.6%. Further, the EC50 is 0.123 nM in test [1] (setting [7]); 1.1 nM in test [1] (setting [8]); 0.0106 nM in test [3] (setting [10]); over 9950 nM in test [5] (setting [7]); over 9950 nM in test [5] (setting [8]). Moreover, the Ki is 0.343 nM in test [2] and 0.0427 nM in test [4].

As to `CCCCCCCCCCCC(=O)N[C@@H](CCC(=O)NCCOCCOCC(=O)NCCOCCOCC(=O)NCCCC[C@H](NC(=O)[C@H](CCCN)NC(=O)[C@H](CC(=O)O)NC(=O)[C@H](CC(C)C)NC(=O)[C@](C)(CC(C)C)NC(=O)[C@@H](NC(=O)C(C)(C)NC(=O)[C@H](Cc1ccncc1)NC(=O)[C@H](CC(=O)O)NC(=O)[C@H](CO)NC(=O)[C@@H](NC(=O)[C@](C)(Cc1ccccc1F)NC(=O)[C@@H](NC(=O)CNC(=O)[C@H](CCC(=O)O)NC(=O)C(C)(C)NC(=O)[C@@H](N)Cc1ccc(O)cc1)[C@@H](C)O)[C@@H](C)O)[C@@H](C)CC)C(=O)N[C@@H](C)C(=O)N[C@@H](CCC(N)=O)C(=O)NC(C)(C)C(=O)N[C@H](C(=O)N[C@@H](Cc1ccccc1)C(=O)N[C@H](C(=O)N[C@H](CCC(=O)O)C(=O)N[C@@](C)(Cc1ccc(O)cc1)C(=O)N[C@@H](CC(C)C)C(=O)N[C@H](C(=O)N[C@@H](CCCCNC(=O)COCCOCCNC(=O)COCCOCCNC(=O)CC[C@H](NC(=O)CCCCCCCCCCC)C(=O)O)C(=O)NCC(=O)NCC(=O)N1CCC[C@H]1C(=O)N[C@@H](CO)C(=O)N[C@@H](CO)C(=O)NCC(=O)N[C@@H](C)C(=O)N1CCC[C@H]1C(=O)N1CCC[C@H]1C(=O)N1CCC[C@H]1C(=O)N[C@@H](CO)C(N)=O)[C@@H](C)CC)[C@@H](C)CC)[C@@H](C)O)C(=O)O` [Example 419], the Emax in test [1] (37° C., 0.1% bovine casein and 1.0% human serum albumin) came out at 97.3%; in test [1] (setting [6]), 113%; in test [3] (setting [9]) it was 88.2%. Moreover, the EC50 is 0.132 nM in test [1] (setting [7]); 0.00958 nM in test [3] (setting [10]); 0.44 nM in test [3] (0.1% bovine casein and 1.0% human serum albumin, geometric mean (SEM, n)); over 9950 nM in test [5] (setting [7]); over 9950 nM in test [5] (setting [8]). Also, the figures for the Ki in test [2] and in test [4] were 0.265 nM and 0.0166 nM, respectively.

With `CCCCCCCCCCCCCCCC(=O)N[C@@H](CCC(=O)NCCOCCOCC(=O)NCCOCCOCC(=O)NCCCC[C@H](NC(=O)[C@H](CCCN)NC(=O)[C@H](CC(=O)O)NC(=O)[C@H](CC(C)C)NC(=O)[C@](C)(CC(C)C)NC(=O)[C@@H](NC(=O)[C@H](CO)NC(=O)[C@H](Cc1ccncc1)NC(=O)[C@H](CC(=O)O)NC(=O)[C@H](CO)NC(=O)[C@@H](NC(=O)[C@](C)(Cc1ccccc1F)NC(=O)[C@@H](NC(=O)CNC(=O)[C@H](CCC(=O)O)NC(=O)C(C)(C)NC(=O)[C@@H](N)Cc1ccc(O)cc1)[C@@H](C)O)[C@@H](C)O)[C@@H](C)CC)C(=O)N[C@@H](C)C(=O)N[C@@H](CCC(N)=O)C(=O)NC(C)(C)C(=O)N[C@@H](CCC(=O)O)C(=O)N[C@@H](Cc1ccccc1)C(=O)N[C@H](C(=O)N[C@H](CCC(=O)O)C(=O)N[C@@](C)(Cc1ccc(O)cc1)C(=O)N[C@@H](CC(C)C)C(=O)N[C@H](C(=O)N[C@@H](CCC(=O)O)C(=O)NCC(=O)N[C@@H](CCCCNC(=O)COCCOCCNC(=O)COCCOCCNC(=O)CC[C@H](NC(=O)CCCCCCCCCCCCCCC)C(=O)O)C(=O)N1CCC[C@H]1C(=O)N[C@@H](CO)C(=O)N[C@@H](CO)C(=O)NCC(=O)N[C@@H](C)C(=O)N1CCC[C@H]1C(=O)N1CCC[C@H]1C(=O)N1CCC[C@H]1C(=O)N[C@@H](CO)C(N)=O)[C@@H](C)CC)[C@@H](C)CC)C(=O)O` [Example 24], the EC50 in test [1] (setting [11]) was 2.04 nM; in test [1] (setting [12]), 0.0063 nM; in test [5] (setting [11]), over 9950 nM; in test [5] (setting [12]), over 9950 nM. For the same compound, the Ki in test [2] was 0.52 nM; in test [4] it was 0.0361 nM. Moreover, the Emax in test [3] (HEK293, 0.1% bovine casein and 1.0% human serum albumin) was found to be 92.4 ± 5.97%.
